According to US20150283120A1, “ANTIBIOTIC METHODS AND COMPOSITIONS FOR BACTERIA INFECTIONS” (THE UNIVERSITY OF CHICAGO, priority 2012, published 2015):
Where a name gives a salt, the structure may show the parent alone.

Tests used:
[1] = tested on: MRSA strain USA300 Pvra-lux; type: cell-based, Staphylococcus aureus; settings: compound 10 μM + oxacillin 2 μg/mL; for RG avg (relative growth): ratio of OD600 to oxacillin alone, four runs
Procedure: (§1) In the secondary screen each microtiter plate contained either cells in TSB alone (16 replicates), cells with oxacillin (2 μg/mL, 31 replicates), or cells with test compound and oxacillin (2 μg/mL, 49 wells). Each compound was assayed in four separate biological replicates.
(§2) All compounds classified in the primary screen as synergists that were vraSR-stimulating or -repressing (as shown in Table 8) were screened in a secondary assay for their effects on both growth and Pvra::lux induction by oxacillin. […] Each compound was tested four separate times at 10 μM in the presence of oxacillin (2 μg/mL) and luminescence was measured every 15 minutes. Relative growth (RG) and relative luminescence (RL) was calculated as the ratio between the OD600 or max LU value in the presence of compound and oxacillin over the average from pooled control values obtained from the same plate. […] Compounds that produced an average RG (ratio of the OD600 of the culture grown with test compound combined with oxacillin to that of oxacillin alone) of <0.8 were classified as oxacillin synergists or potentiators. The relative luminescence (RL) was the ratio of the LU produced in the presence of the test compound combined with oxacillin to that produced by oxacillin alone. Compounds were classified as “vraSR repressors” (mean RL of <0.8), “vraSR stimulators”, (mean RL>1.2), and “vraSR neutral” (mean RL between 0.80-1.2). […] In contrast, 34 compounds had no effect on growth in the presence of oxacillin (“un” in the OD600 category). Among the oxacillin potentiators, there were 2 vraSR stimulators, 3 vraSR neutral compounds and 10 vraSR repressors.

[2] = tested on: vraSR transcription (Pvra::lux); type: cell-based, Staphylococcus aureus; settings: compound 10 μM + oxacillin 2 μg/mL; for RL avg (relative luminescence): ratio of LU to oxacillin alone, four runs
Procedure: as §1, §2

Molecule	OD600 category [1]	RG avg (relative growth) [1]	Effect on vraSR transcription [2]	RL avg (relative luminescence) [2]
C[n+]1cc2c3c(ccc2c2ccc4cc5c(cc4c21)OCO5)OCO3 [Sanguinarine]	inhibited (of <0.8 were classified as oxacillin synergists or potentiators)	0.78	repress (“vraSR repressors” (mean RL of <0.8))	0.47
C[C@]12CC[C@H](O)C[C@H]1CC[C@@H]1[C@@H]2CC[C@]2(C)[C@@H](C3=CC(=O)OC3)CC[C@]12O [Digitoxigenin]	un (no effect on growth in the presence of oxacillin (“un” in the OD600 category))	1.01	neutral (“vraSR neutral” (mean RL between 0.80-1.2))	0.97
CC1(C)S[C@@H]2[C@H](NC(=O)[C@H](NC(=O)N3CCNC3=O)c3ccccc3)C(=O)N2[C@H]1C(=O)O [Azlocillin sodium salt]	un (no effect on growth in the presence of oxacillin (“un” in the OD600 category))	0.91	neutral (“vraSR neutral” (mean RL between 0.80-1.2))	0.78
O=C(c1ccc(OCCN2CCCCC2)cc1)c1c(-c2ccc(O)cc2)sc2cc(O)ccc12 [Raloxifene hydrochloride]	un (no effect on growth in the presence of oxacillin (“un” in the OD600 category))	0.97	neutral (“vraSR neutral” (mean RL between 0.80-1.2))	0.85
C[C@@H]1[C@H](O)[C@@H](C)/C=C/C=C/CC/C=C/C=C/C=C/C=C/C(O[C@H]2O[C@H](C)[C@@H](O)[C@H](N)[C@@H]2O)CC2O[C@](O)(CC(O)C(O)CCC(O)CC(O)CC(O)CC(=O)O[C@H]1C)CC(O)C2C(=O)O (stereo partly drawn) [Nystatine]	un (no effect on growth in the presence of oxacillin (“un” in the OD600 category))	1.00	neutral (“vraSR neutral” (mean RL between 0.80-1.2))	1.04
Cc1ccnc(NS(=O)(=O)c2ccc(N)cc2)n1 [Sulfamerazine]	un (no effect on growth in the presence of oxacillin (“un” in the OD600 category))	0.99	neutral (“vraSR neutral” (mean RL between 0.80-1.2))	1.01
CCCC(=O)Nc1ncnc2c1ncn2[C@@H]1O[C@@H]2COP(=O)(O)O[C@H]2[C@H]1OC(=O)CCC [Bucladesine sodium salt]	un (no effect on growth in the presence of oxacillin (“un” in the OD600 category))	1.02	neutral (“vraSR neutral” (mean RL between 0.80-1.2))	0.94
CCC(=O)OCC(=O)[C@@]1(OC(=O)CC)[C@@H](C)C[C@H]2[C@@H]3CCC4=CC(=O)C=C[C@]4(C)[C@@]3(Cl)[C@@H](O)C[C@@]21C [Beclomethasone dipropionate]	un (no effect on growth in the presence of oxacillin (“un” in the OD600 category))	0.96	neutral (“vraSR neutral” (mean RL between 0.80-1.2))	0.96
CCn1nc(C(=O)O)c(=O)c2cc3c(cc21)OCO3 [Cinoxacin]	un (no effect on growth in the presence of oxacillin (“un” in the OD600 category))	1.05	neutral (“vraSR neutral” (mean RL between 0.80-1.2))	1.03
CCN(CC)CCc1nc(-c2ccccc2)no1.O=C(O)CC(O)(CC(=O)O)C(=O)O [Oxalamine citrate salt]	un (no effect on growth in the presence of oxacillin (“un” in the OD600 category))	1.03	neutral (“vraSR neutral” (mean RL between 0.80-1.2))	1.00
O=C1c2c(O)ccc(O)c2C(=O)c2c(NCCNCCO)ccc(NCCNCCO)c21 [Mitoxantrone dihydrochloride]	un (no effect on growth in the presence of oxacillin (“un” in the OD600 category))	0.94	neutral (“vraSR neutral” (mean RL between 0.80-1.2))	0.83
CC1CS(=O)(=O)CCN1/N=C/c1ccc([N+](=O)[O-])o1 (stereo not drawn) [Nifurtimox]	un (no effect on growth in the presence of oxacillin (“un” in the OD600 category))	0.97	repress (“vraSR repressors” (mean RL of <0.8))	0.95
CC(Oc1ccccc1)C(=O)N[C@@H]1C(=O)N2[C@@H]1SC(C)(C)[C@@H]2C(=O)O (stereo partly drawn) [Phenethicillin potassium salt]	un (no effect on growth in the presence of oxacillin (“un” in the OD600 category))	0.94	neutral (“vraSR neutral” (mean RL between 0.80-1.2))	0.88
CC(C(=O)O)c1ccc(N2Cc3ccccc3C2=O)cc1 (stereo not drawn) [Indoprofen]	un (no effect on growth in the presence of oxacillin (“un” in the OD600 category))	0.98	neutral (“vraSR neutral” (mean RL between 0.80-1.2))	0.87
CN(C)CCOC(=O)COc1ccc(Cl)cc1 [Meclofenoxate hydrochloride]	un (no effect on growth in the presence of oxacillin (“un” in the OD600 category))	1.08	neutral (“vraSR neutral” (mean RL between 0.80-1.2))	1.08
Trimeprazine tartrate	un (no effect on growth in the presence of oxacillin (“un” in the OD600 category))	1.04	neutral (“vraSR neutral” (mean RL between 0.80-1.2))	0.96
N=C(N)NC(=O)Cc1c(Cl)cccc1Cl [Guanfacine hydrochloride]	un (no effect on growth in the presence of oxacillin (“un” in the OD600 category))	0.88	neutral (“vraSR neutral” (mean RL between 0.80-1.2))	0.79
CN[C@@H]1[C@H](O)[C@H](NC)[C@H]2O[C@@]3(O)C(=O)C[C@@H](C)O[C@H]3O[C@@H]2[C@H]1O [Spectinomycin dihydrochloride]	un (no effect on growth in the presence of oxacillin (“un” in the OD600 category))	0.89	neutral (“vraSR neutral” (mean RL between 0.80-1.2))	0.77
O=C(CCCN1CC=C(n2c(=O)[nH]c3ccccc32)CC1)c1ccc(F)cc1 [Droperidol]	un (no effect on growth in the presence of oxacillin (“un” in the OD600 category))	1.02	neutral (“vraSR neutral” (mean RL between 0.80-1.2))	0.91
C[N+]12CCC(CC1)C(OC(=O)C(O)(c1ccccc1)c1ccccc1)C2 (stereo not drawn) [Clidinium bromide]	un (no effect on growth in the presence of oxacillin (“un” in the OD600 category))	0.97	neutral (“vraSR neutral” (mean RL between 0.80-1.2))	0.95
COc1cccc2c1C(=O)c1c(O)c3c(c(O)c1C2=O)C[C@@](O)(C(=O)CO)C[C@@H]3O[C@H]1C[C@H](N)[C@H](O)[C@H](C)O1 [Doxorubicin hydrochloride]	un (no effect on growth in the presence of oxacillin (“un” in the OD600 category))	0.88	repress (“vraSR repressors” (mean RL of <0.8))	0.83
COc1cccc2c1C(=O)c1c(O)c3c(c(O)c1C2=O)C[C@@](O)(C(C)=O)C[C@@H]3O[C@H]1C[C@H](N)[C@H](O)[C@H](C)O1 [Daunorubicin hydrochloride]	un (no effect on growth in the presence of oxacillin (“un” in the OD600 category))	0.98	repress (“vraSR repressors” (mean RL of <0.8))	1.00
CN(C)CCCN1c2ccccc2Sc2ccccc21 [Promazine hydrochloride]	un (no effect on growth in the presence of oxacillin (“un” in the OD600 category))	1.09	neutral (“vraSR neutral” (mean RL between 0.80-1.2))	1.08
CCN(CC)CCOc1ccc(C(=C(Cl)c2ccccc2)c2ccccc2)cc1 (racemic) [Clomiphene citrate (Z,E), 2-(4-(2-chloro-1,2-diphenylethenyl)phenoxy)-N,N-diethyl-ethanamine]	inhibited (of <0.8 were classified as oxacillin synergists or potentiators)	0.68	repress (“vraSR repressors” (mean RL of <0.8))	0.39
